Laboratory results from patent US6825308B1, “Copolymers and preparation thereof” (Council of Scientific and Industrial Research, priority 2003, dated 2004).

Biological target: lysozyme (Gallus gallus, UniProt P00698)
Assay: Relative inhibition of lysozyme, Micrococcus lysodeikticus as substrate (Neuberger and Wilson)
Assay type: biochemical
Settings: pH 6.2, 20° C.
Protocol: This example describes the estimation of inhibition of lysozyme by copolymers.
Micrococcus lysodeikticus is a substrate for the enzyme lysozyme. Relative binding of copolymers was estimated by using a procedure reported by Neuberger and Wilson (1967).
1.5% w/v stock solutions of copolymer was prepared in 0.0066 M phosphate buffer pH 6.2 containing 0.0154 m sodium chloride and 0.008 M sodium azide. One milliliter of stock solution containing different copolymer concentration was mixed with 1.6 ml of 78 μg/ml of Micrococcus lysodeikticus in a 3-ml capacity glass cuvette. The mixture was incubated for 5 minutes at 20° C. To this mixture 0.1 ml of lysozyme (27 μg/ml) was added and mixed thoroughly. The relative absorbance at 450 nm (Δ450) was recorded for 30 seconds. A blank reading without the copolymer was noted and the change in the absorbance per second was calculated. Then relative inhibition was calculated.

lysozyme, sequence (P00698 19-147): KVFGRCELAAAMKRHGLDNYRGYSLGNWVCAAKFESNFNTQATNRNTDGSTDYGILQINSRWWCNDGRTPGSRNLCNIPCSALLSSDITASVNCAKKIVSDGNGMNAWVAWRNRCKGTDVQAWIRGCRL

## CC(=O)N[C@H]1C(O)O[C@H](CO)[C@@H](O)[C@@H]1O (some centres unmarked) [NAG, N-Acetyl Glucosamine]
Concentration at Imax
  Imax: 92.5 mM
Maximum relative inhibition of lysozyme
  Imax: 55.29
